Data published in patent publication US20160195544A1, “METHOD OF DIAGNOSING SEPSIS OR SEPSIS RISK” (UNIVERSITY OF ROCHESTER, priority 2013, published 2016).

Assays:
[1] = test system: neutrophils isolated from healthy donors; assay: In vitro stimulation of neutrophils from healthy donors, VLA-3 expression by RT-PCR and flow cytometry; assay type: cell-based; conditions: human neutrophils, 1 and 3 hours of stimulation, PMA 20 ng/ml, LPS 100 μg/ml
Source text: Blood was collected from healthy volunteers via antecubital vein puncture in heparin containing vacutainers. Granulocytes and erythrocytes were separated from whole blood by centrifugation through 1-step Polymorphs (Fresenius Kabi Norge AS) density gradient. Remaining erythrocytes were removed by hypotonic lysis, yielding a neutrophil purity of >98%. The Human Research Studies Review Board of the University of Rochester approved this study, and informed consent was obtained in accordance with the Declaration of Helsinki To measure integrin expression, neutrophils were stimulated with PMA (20 ng/ml), TNF-α (20 ng/ml), LPS (100 μg/ml) or fMLP (1 μM for 1 hour or 3 hours in L15 (Leibovitz) medium with glucose at 37° C. temperatures.
Total RNA was prepared from human neutrophils or sorted mouse bone marrow granulocytes using RNeasy Mini Kit (QIAGEN, Valencia, Calif.). Similarly, RNA was reverse transcribed by using murine leukemia virus reverse transcriptase (Life Technologies, Bethesda, Md.), with oligo(dT) as the primer (Invitrogen, San Diego, Calif.). All cDNAs were divided into aliquots and stored at −20° C. until further use. Quantitation of integrins α3 and α2 on human neutrophils and IL-6, IL-β and TNFα mRNA were performed using TaqMan® Gene Expression Assays (Applied Biosystems). […] RQ values were analyzed using software.

VLA-3 [2] = molecular target: T1, VLA-3 (Mus musculus, UniProt P09055+Q62470); assay: CLP (cecal ligation and puncture) sepsis mouse model, VLA-3 blocking with peptide; assay type: in vivo
T1 construct: endogenous in cells; host or cells: neutrophils and other tissues of live mice (C57BL/6; LysM-GFP bone marrow chimeras)
T1 sequence (Q62470 33-1053): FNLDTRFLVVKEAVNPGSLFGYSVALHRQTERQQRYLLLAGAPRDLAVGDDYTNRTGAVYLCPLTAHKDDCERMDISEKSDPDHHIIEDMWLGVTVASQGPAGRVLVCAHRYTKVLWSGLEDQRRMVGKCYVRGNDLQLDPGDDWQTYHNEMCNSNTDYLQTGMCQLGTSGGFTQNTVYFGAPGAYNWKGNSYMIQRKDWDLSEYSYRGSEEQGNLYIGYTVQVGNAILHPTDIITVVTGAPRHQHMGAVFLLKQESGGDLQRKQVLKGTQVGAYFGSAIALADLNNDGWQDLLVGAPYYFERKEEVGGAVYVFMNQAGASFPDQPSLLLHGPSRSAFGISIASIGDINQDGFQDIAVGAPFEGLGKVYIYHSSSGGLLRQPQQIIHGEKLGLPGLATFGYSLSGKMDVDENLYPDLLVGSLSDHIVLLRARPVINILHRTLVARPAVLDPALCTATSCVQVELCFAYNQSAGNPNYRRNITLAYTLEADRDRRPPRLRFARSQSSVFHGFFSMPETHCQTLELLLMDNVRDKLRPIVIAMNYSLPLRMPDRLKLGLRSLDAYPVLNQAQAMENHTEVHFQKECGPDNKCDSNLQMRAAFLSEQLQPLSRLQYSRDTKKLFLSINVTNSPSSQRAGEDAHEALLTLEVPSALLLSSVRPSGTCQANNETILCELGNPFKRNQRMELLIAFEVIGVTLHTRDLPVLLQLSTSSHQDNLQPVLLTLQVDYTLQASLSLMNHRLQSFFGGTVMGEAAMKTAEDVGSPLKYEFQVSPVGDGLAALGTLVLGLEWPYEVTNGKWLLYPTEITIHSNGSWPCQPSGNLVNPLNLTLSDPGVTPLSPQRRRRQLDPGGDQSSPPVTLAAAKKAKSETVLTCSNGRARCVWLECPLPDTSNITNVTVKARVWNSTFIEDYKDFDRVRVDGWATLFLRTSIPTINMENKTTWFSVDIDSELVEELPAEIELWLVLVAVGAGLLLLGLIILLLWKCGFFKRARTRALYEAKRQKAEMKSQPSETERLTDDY
T1 sequence (P09055 21-798): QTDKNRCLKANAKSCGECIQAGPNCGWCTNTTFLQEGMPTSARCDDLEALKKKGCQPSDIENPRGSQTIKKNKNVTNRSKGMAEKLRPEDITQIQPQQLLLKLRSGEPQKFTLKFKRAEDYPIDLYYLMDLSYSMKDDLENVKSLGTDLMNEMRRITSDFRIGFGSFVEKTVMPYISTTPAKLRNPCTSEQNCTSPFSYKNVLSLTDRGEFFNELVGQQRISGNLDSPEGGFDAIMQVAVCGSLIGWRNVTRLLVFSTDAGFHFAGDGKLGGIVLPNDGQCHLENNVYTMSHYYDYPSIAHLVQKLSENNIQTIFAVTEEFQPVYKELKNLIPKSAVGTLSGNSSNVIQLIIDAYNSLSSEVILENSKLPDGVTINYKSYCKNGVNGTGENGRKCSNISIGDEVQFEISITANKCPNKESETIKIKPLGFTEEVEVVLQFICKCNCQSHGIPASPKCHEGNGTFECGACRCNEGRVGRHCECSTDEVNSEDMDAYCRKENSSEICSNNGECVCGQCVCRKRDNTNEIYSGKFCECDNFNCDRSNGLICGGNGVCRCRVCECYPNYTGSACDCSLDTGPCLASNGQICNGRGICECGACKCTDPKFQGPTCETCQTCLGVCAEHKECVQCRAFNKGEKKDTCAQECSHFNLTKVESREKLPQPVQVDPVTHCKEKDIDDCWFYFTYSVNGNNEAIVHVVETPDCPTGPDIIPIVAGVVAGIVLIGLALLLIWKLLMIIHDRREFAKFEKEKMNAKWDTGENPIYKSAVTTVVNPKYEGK
Protocol: (§1) Endotoxemia and CLP were performed according to Animal Resource Protocol approved by the Committee at University of Rochester. For endotoxemia assay, 8-12-wk-old C57BL/6 (Harlan) male mice were weighed and LPS (E. coli […], Sigma-Aldrich) was administered by intra peritoneal (IP) injection to achieve LD90 mortality rate. CLP survival surgery was performed under isofluorane inhalation anesthesia. Caecum was ligated and punctured through and through with a 21-gauge needle. All the mice were resuscitated with 1 ml lactated Ringers injected subcutaneously. For VLA-3 blocking experiments, LXY2 (88 μg) (CysD-AspD-Gly-Tyr(3-NO2)-Gly-4Hyp-Asn-CysD) where the amino acids may be D amino acids, or control (88 μg) (Peptide International) peptides were administered intravenously (IV) at 2 hours and by IP at 8 hours, 32 hours following CLP or endotoxemia. Survival was monitored for 120 hours.
For flow cytometry measurement of the integrin expression on neutrophil, bone marrow (BM), peritoneal Lavage (PL), peripheral blood and lungs were isolated from naïve and septic mice at the indicated time points and subsequently single-cell suspensions were prepared. RBC lysis was performed using ACK lysing buffer (Invitrogen, San Diego, Calif.). The Fc receptors were blocked with unconjugated anti-CD16/32 (eBioscience, San Diego, Calif.) for 30 minutes. Samples were stained with Alexafluor 488 labeled anti-Gr1 (Invitrogen). Allophycocyanin (APC) labeled Ly6G (BD Biosciences), PerCp-Cy5.5 labeled anti-CD11b (eBioscience, San Diego, Calif.,), fluorescein isothiocyanate (FITC) anti-F4/80 (eBioscience, San Diego, Calif., USA), purified goat anti-mouse integrin α3/CD49c (R&D Systems), PE-anti-mouse integrin α2/CD49b, α5/CD49e, αv/CD51, APC-anti-mouse integrin α6/CD49f and PE conjugated donkey anti-goat IgG (Santa Cruz) antibodies were used. All samples were fixed with 3.7% formaldehyde and collected on FACS Calliber flow cytometer (BD Biosciences, San Diego, Calif.). Data were analyzed using Flow Jo software.
Peritoneal lavage was collected after injection of 10 ml PBS into the peritoneum. […] Colony count for each group was expressed as CFU/ml.
Serum from individual mice was collected at the indicated time points and the level of IL-6 was determined by standard sandwich ELISA protocol. […] The color reaction was developed using TMB (Thermo Scientific, Rockford, Ill.) and measured with an ELISA reader (Kinetic microplate reader; Molecular Devices) at 450 nm.
All values are expressed as the mean±SEM. Data from human samples were analyzed by one-way ANOVA. Data from murine experiments were analyzed by paired non-parametric t-test (Wilcoxon test). Survival curves were analyzed by the Kaplan-Meyer log-rank test. […]

VLA-3 [3] = molecular target: T1, VLA-3; assay: Transmission electron microscopy of fMLP-superfused cremaster microvasculature; assay type: in vivo; conditions: 88 μg IV
Protocol: Leukocyte extravasation was first observed on the fMLP-stimulated cremaster venules of LysM-GFP mice by MP-IVM. LXY2 (88 μg) peptide was injected IV when extravasating cells were noticed. The cremaster was then immediately dissected from the body post-euthanization and fixed with 2.5% glutaraldehyde. The tissue was further processed for transmission electron microscopy at the Electron Microscope Research Core at the University of Rochester for transmission electron microscopy.

VLA-3 [4] = molecular target: T1, VLA-3; assay: LPS-induced endotoxemia mouse model, VLA-3 blocking with peptide; assay type: in vivo; conditions: endotoxemia mice, 8 hours, 88 μg peptide, vs control peptide
Protocol: as §1
For flow cytometry measurement of the integrin expression on neutrophil, bone marrow (BM), peritoneal Lavage (PL), peripheral blood and lungs were isolated from naïve and septic mice at the indicated time points and subsequently single-cell suspensions were prepared. RBC lysis was performed using ACK lysing buffer (Invitrogen, San Diego, Calif.). The Fc receptors were blocked with unconjugated anti-CD16/32 (eBioscience, San Diego, Calif.) for 30 minutes. […] Data were analyzed using Flow Jo software.

VLA-3 [5] = molecular target: T1, VLA-3; assay: Multiphoton intravital microscopy (MP-IVM) of fMLP-superfused cremaster vessels of LysM-GFP mice; assay type: in vivo; conditions: fMLP 1 μM superfusion, 88 μg IV
Source text: For MP-IVM of Lysozyme M (LysM)-GFP mice (Faust et al., “Insertion of Enhanced Green Fluorescent Protein Into the Lysozyme Gene Creates Mice With Green Fluorescent Granulocytes and Macrophages,” Blood 96:719-726 (2000), the disclosure of which is incorporated herein by reference in its entirety) in which granulocytes and monocytes express GFP were used. In order to accurately track morphological changes and migration velocities of individual extravasating leukocytes, mixed bone marrow chimera mice were generated using 80% WT and 20% LysM-GFP bone marrow into irradiated WT recipient mice to reduce the density of fluorescent cells during imaging. 8 weeks after bone marrow transfer to the irradiated recipient mice, the mice were then used for in vivo imaging. Cremaster muscle was prepared for imaging as previously described (Sumagin et al., “Leukocyte-Endothelial Cell Interactions are Linked to Vascular Permeability Via ICAM-1-Mediated Signaling,” Am. J. Physiol. Heart Circ. Physiol. 295:H969-H977 (2008), the disclosure of which is incorporated herein by reference in its entirety). Briefly, mice were anesthetized with pentobarbital sodium (65 mg/kg IP) and maintained on isoflorane inhalation anesthesia. The body temperature was maintained by placing the animal on a warming pad set. […] Imaging data were analyzed with velocity software (PerkinElmer).

Compound	mRNA level of VLA-3 ([1]; RT-PCR)	protein (cell-surface) level of VLA-3 ([1]; flow cytometry)	survival / sepsis lethality (VLA-3 [2]; CLP and endotoxemia mice, 88 μg IV at 2 hours and IP at 8 and 32 hours, survival monitored 120 hours, Kaplan-Meyer log-rank)	number of tissue-infiltrating neutrophils (PL and lungs) (VLA-3 [2]; mice with CLP-induced sepsis, 8 hours after CLP, 88 μg/dose IV, vs control peptide)	local bacterial clearance (bacterial load in PL) (VLA-3 [2]; septic mice, PL streaked on TSA blood agar, colonies counted after 24 hours)	levels of the IL-6 cytokine in the serum (VLA-3 [2]; septic mice, sandwich ELISA)	location of neutrophils in the vessel wall (ultrastructural analysis) (VLA-3 [3])	number of tissue-infiltrating neutrophils (PL) (VLA-3 [4])	neutrophil extravasation in response to fMLP (VLA-3 [5])
CCCCCCCCCCCCCC(=O)O[C@@H]1[C@@H](C)[C@@]2(O)[C@@H](C=C(CO)C[C@]3(O)C(=O)C(C)=C[C@@H]23)[C@@H]2C(C)(C)[C@]12OC(C)=O [PMA]	significant increases	significant increases	–	–	–	–	–	–	–
CysD-AspD-Gly-Tyr(3-NO2)-Gly-4Hyp-Asn-CysD [LXY2]	–	–	protected mice from sepsis lethality	significantly reduced	without altering	reduced	majority of neutrophils accumulated within the space between the endothelium and the basement membrane	significantly reduced	dramatically reduced
